Source: patent publication EP0393604B1, “6,11-Dihydro-5H-pyrido(2,3-b)(1,5,)benzodiazepin-5-ones and thiones and their use in the prevention or treatment of AIDS” (priority 1989, dated 1990)
Read-outs that look alike come from different tables or passages of the source.

Legend:
HIV-1 RT = target: T1, HIV-1 RT (Human immunodeficiency virus type 1 group M subtype B, UniProt P03367); test: Reverse Transcriptase (RT) Assay: inhibition of RNA-dependent DNA polymerase activity; assay type: biochemical; conditions: for inhibition at 10 µg/mL: read-out: RT Inhibition % @ 10µg/ml
T1 construct: Reverse transcriptase enzyme from the LAV strain of Human Immunodeficiency Virus (HIV-1) (1) was isolated from the bacterial strain JM109; made in house; host or cells: E. coli JM109, clone pBRTprt1+ in vector pIBI21, lac promoter, IPTG induction
Excerpt: Utilizing the Reverse Transcriptase (RT) Assay descibed below, compounds can be tested for their ability to inhibit the RNA-dependent DNA polymerase activity of HIV-1 RT. Certain specific compounds of formula I described in the Examples which appear below, were so tested. The above-described compounds of formula IA were also so tested.
Among the enzymes for which Human Immunodeficiency Virus (HIV-1) encodes is a reverse transcriptase (1), so-named because it transcribes a DNA copy from an RNA template. This activity can be quantitatively measured in a cell-free enzyme assay which has been previously described (2), and is based upon the observation that reverse transcriptase is able to use a synthetic template [poly r(C) primed with oligo d(G)] to transcribe a radio-labelled, acid-precipitable DNA strand utilizing ^3H-dGTP as a substrate.
Reverse transcriptase enzyme from the LAV strain of Human Immunodeficiency Virus (HIV-1) (1) was isolated from the bacterial strain JM109 (3) expressing the DNA clone pBRTprt1+ (2) which is under the control of the lac promoter in the expression vector pIBI21 (4). An overnight culture grown in 2XYT medium (37°C, 225 rpm) (5) supplemented with 100 µg/ml ampicillin for positive selection is inoculated at a 1:40 dilution into M9 medium supplemented with 10µg/ml thiamine, 0.5% casamino acids, and 50 µg/ml ampicillin (5). The culture is incubated (37°C, 225 rpm) until it reaches an OD540 of 0.3-0.4. At that time the repressor inhibitor IPTG (isopropyl b-D-thiogalactopyranoside) is added to 0.5mM and the mixture is incubated for 2 additional hours. Bacteria are pelleted, resuspended in a 50mM Tris, 0.6mM EDTA, 0.375M NaCl buffer and digested by the addition of lysozyme (1mg/ml) for 30 minutes on ice. The cells are lysed by the addition of 0.2% NP-40 and brought to 1M NaCl.
After removal of the insoluble debris by centrifugation, the protein is precipitated by the addition of 3 volumes of water-saturated ammonium sulfate. The enzyme is pelleted, resuspended in RT buffer (50mM Tris pH 7.5. 1mM EDTA, 5mM DTT, 0.1% NP-40, 0.1M NaCl, and 50% glycerol), and stored at -70°C for further use.
The 2X concentrated stock reaction mixture is aliquoted and stored at -20°C. The mixture is stable and thawed for use in each assay. This enzyme assay has been adapted to a 96 well microtiter plate system, and has been previously described (6). Tris buffer (50 mM, pH 7.4), vehicle (solvent diluted to match the compound dilution), or compounds in vehicle are dispensed into 96-well microtiter plates (10µl/well: 3 wells/compound). The HIV-1 RT enzyme is thawed and diluted in 50mM Tris pH 7.4 so that fifteen µl of diluted enzyme contain 0.001 Unit (one unit is that amount of enzyme to transform 1 micromole of substrate per minute at 25°C) and 15µl are dispensed per well. Twenty µl of 0.12 - 0.5M EDTA are added to the first three wells of the microtiter plate. EDTA chelates the Mg^++ present and prevents reverse transcription. This group serves as background polymerization which is subtracted from all other groups. Twenty-five ul of the 2X reaction mixture are added to all wells and the assay is allowed to incubate at room temperature for 60 minutes. The assay is terminated by precipitating the DNA in each well with 50µl of trichloracetic acid (TCA) (10% w/v) in sodium pyrophosphate (1% w/v). The microtiter plate is incubated for 15 minutes at 4°C and the precipitate is fixed onto #30 glass fiber paper (Schleicher & Schuell) using a Skatron semi-automatic harvester. The filters are then washed with additional TCA (5%) containing sodium pyrophosphate (1%), rinsed with aqueous ethanol (70%), dried, and transferred to scintillation vials (6). Each vial receives 2 mls of scintillation cocktail and is counted in a Beckman beta counter. […]

[1] = MTT Assay for Cellular Cytotoxicity; assay type: cell-based, human; conditions: human, H9 cells, five days incubation, read-out: Cytotoxity Assay (EC50)
Protocol: (§1) In order to roughly assess the cytotoxicity of the compounds of formula 1, several such compounds were tested in the MTT Cellular Cytotoxicity Assay described below.
(§2) The MTT [3-(4,5-dimethylthiazol-2yl)-2,5-diphenyl tetrazolium bromide) assay is based on cleavage of tetrazolium bromide by metabolically active cells, resulting in a highly quantitative blue color. This assay has been previously described (1) but has been optimized for the purposes of the testing reported herein.
(§3) Cells (100µl) are plated in microtest plate wells at a concentration of 10^5 cells per ml in the presence of varying concentrations of inhibitor. The cells are incubated at 37°C in a humidified CO2 incubator. […] After 4 hours additional incubation at 37°C, 60µl of Triton-X is added to each well and thoroughly mixed to aid the solubilization of the crystals. Absolute ethanol (5µl) is added to each well and the resulting mixture is incubated for 30 minutes at 60°C and immediately read on a plate reader (Dynatech) at a wavelength of 570nm.
(§4) Data from this assay are used to generate a nonlinear regression analysis, which yields the EC50.

[2] = test system: HTLV-IIIB strain of HIV-1; test: Human T-Cell Culture Assay (syncytia formation in c8166 cells); assay type: cell-based; conditions: Human immunodeficiency virus 1, IIIB, 96 h, syncytia four days after virus challenge
Protocol: In order to confirm that compounds which are active in the RT Assay also have the ability to inhibit HIV-1 replication in a living system, several compounds of formula I were also tested in the Human T-Cell Culture Assay described below.
Formation of syncytia is a feature of in vitro cultures of CD4+ T-cells infected with HIV-1. In this assay, T-cells are treated with a putative replication inhibiting compound and then infected with HIV-1. After incubation the culture is checked for the formation of syncytia. The absence or reduction is the number of syncytia is used as a measure of the test compound's ability to inhibit HIV replication.
The target cells, designated c8166, are a subclone of human lymphoma cells of T-cell origin and are established at an initial density of 5x10^4 per 100 ul in RPMI 1640 (+ 10% fetal bovine serum) culture medium in 96 well flat bottom plates. A selected amount of test compound, dissolved in DMSO is included. After 24 hours, 50-100 TCID50's (the dose that results in induced effect in 50% of test cultures) of the HTLV-IIIB strain of HIV-1 (2) are innoculated into each culture. Control cultures receive compound or virus only. Four days after virus challenge, cultures are visually examined for the frequency and distribution of virus-induced giant cell syncytia. The percent inhibition by the test compound is determined by comparison with control values. Confirmation of the presence or absence of virus replication is accomplished by harvesting the cell free culture fluids from all experimental groups to determine the present or absence of infectious progeny through the induction of syncytia formation in secondary human T-cell cultures after 3 days.

H9 cell line = test: MTT Assay for Cellular Cytotoxicity; assay type: cell-based, human; conditions: H9 cells, five days incubation, unit inferred, 7200 min, read-out: Cytotoxity Assay (EC50)
Protocol: as §1, §2, §3, §4

[3] = 10µg/ml, Table I, compounds of formula I

Molecule | inhibition at 10 µg/mL (HIV-1 RT; [3]) | CC50 at 120 h [1] | also measured
CCN1c2ccccc2N(C)C(=O)c2cccnc21 [Example 2, 6,11-Dihydro-11-ethyl-6-methyl-5H-pyrido[2,3-b][1,5]benzodiazepin-5-one] | 97% | 80 µM | inhibition at 4 µM ([2]; @ 4µM): 100%
Cc1cc2c(cc1C)N(C)c1ncccc1C(=O)N2C [Example 9, 6,11-Dihydro-6,8,9,11-tetramethyl-5H-pyrido[2,3-b][1,5]-benzodiazepin-5-one] | 92% | 4 µM | –
Mixture of 6,11-Dihydro-2,4,6,8,11-and 6,11-dihydro-2,4,6,9,11- pentamethyl-5H-pyrido[2,3-b][1,5]benzodiazepin-5-one [Example 17] | – | – | RT Inhibition % @ 10µg/ml (HIV-1 RT; [3]): 49%; CC50 (H9 cell line): 9 µM
Cc1ccc2c(n1)N(C)c1cc(C)c(C)cc1N(C)C2=O [Example 15, 6,11-Dihydro-2,6,8,9,11-pentamethyl-5H-pyrido[2,3-b][1,5]benzodiazepin-5-one] | 39% | – | CC50 at 120 h ([1]; unit inferred): 18 µM
CC(=O)N1c2cc(C)c(C)cc2N(C)C(=O)c2cccnc21 [Example 19, 11-Acetyl-6,11-dihydro-6,8,9-trimethyl-5H-pyrido[2,3-b][1,5]benzodiazepin-5-one] | 90% | – | CC50 at 120 h ([1]; unit inferred): 85 µM
CC(C)N1c2ccccc2N(C)C(=O)c2cccnc21 [Example 5, 6,11-Dihydro-6-methyl-11-methylethyl-5H-pyrido[2,3-b][1,5]benzodiazepin-5-one] | 94% | 50 µM | inhibition at 19 µM ([2]; @19µM): 100%
CN1C(=O)c2cccnc2N(C)c2ccc(Cl)cc21 [Example 8, 8-Chloro-6,11-dihydro-6,11-dimethyl-5H-pyrido[2,3-b][1,5]benzodiazepin-5-one] | 55% | 37 µM | –
CCN1c2ccccc2N(C)C(=S)c2cccnc21 [Example 22, 6,11-Dihydro-11-ethyl-6-methyl-5H-pyrido[2,3-b][1,5]benzodiazepin-5-thione] | – | – | inhibition at 10 µg/mL (HIV-1 RT): 100%; inhibition at 3 µM ([2]; @3µM): 100%
CN1C(=O)c2cccnc2N(C)c2cc(C(F)(F)F)ccc21 [Example 4, 6,11-Dihydro-6,11-dimethyl-9-(trifluoromethyl)-5H-pyrido[2,3-b][1,5]benzodiazepin-5-one] | 79% | 49 µM | –
